From PMC8657792, “Interaction Profiles of Central Nervous System Active Drugs at Human Organic Cation Transporters 1–3 and Human Plasma Membrane Monoamine Transporter” (International Journal of Molecular Sciences, 2021)
Read-outs that look alike come from different tables or passages of the source.

Legend:
hPMAT [1] = target: T1, hPMAT (Homo sapiens, UniProt Q7RTT9); details: Table S1, supplementary reference list, read-out: IC50 literature hPMAT, cited from earlier work
T1 construct: expressed in transfected cells
T1 sequence (Q7RTT9 1-530): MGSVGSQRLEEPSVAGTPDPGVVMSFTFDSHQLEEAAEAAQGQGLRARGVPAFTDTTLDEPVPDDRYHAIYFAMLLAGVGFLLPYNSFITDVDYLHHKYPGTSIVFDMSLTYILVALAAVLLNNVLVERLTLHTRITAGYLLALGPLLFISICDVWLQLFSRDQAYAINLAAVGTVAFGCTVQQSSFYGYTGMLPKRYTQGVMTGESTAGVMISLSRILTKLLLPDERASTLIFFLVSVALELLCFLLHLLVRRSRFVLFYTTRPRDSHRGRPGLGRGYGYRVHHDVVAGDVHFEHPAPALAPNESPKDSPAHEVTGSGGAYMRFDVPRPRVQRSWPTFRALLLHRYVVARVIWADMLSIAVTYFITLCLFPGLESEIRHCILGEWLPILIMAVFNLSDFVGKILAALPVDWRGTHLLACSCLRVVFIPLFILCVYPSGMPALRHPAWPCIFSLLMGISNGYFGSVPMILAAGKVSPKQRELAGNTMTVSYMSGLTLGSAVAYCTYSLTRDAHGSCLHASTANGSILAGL

hOCT2 [2] = target: T2, hOCT2 (Homo sapiens, UniProt O15244); experiment: [3H]MPP+ uptake inhibition assay, HEK293 cells stably expressing hOCT2; assay type: cell-based
T2 construct: expressed in transfected cells
T2 sequence (O15244 1-555): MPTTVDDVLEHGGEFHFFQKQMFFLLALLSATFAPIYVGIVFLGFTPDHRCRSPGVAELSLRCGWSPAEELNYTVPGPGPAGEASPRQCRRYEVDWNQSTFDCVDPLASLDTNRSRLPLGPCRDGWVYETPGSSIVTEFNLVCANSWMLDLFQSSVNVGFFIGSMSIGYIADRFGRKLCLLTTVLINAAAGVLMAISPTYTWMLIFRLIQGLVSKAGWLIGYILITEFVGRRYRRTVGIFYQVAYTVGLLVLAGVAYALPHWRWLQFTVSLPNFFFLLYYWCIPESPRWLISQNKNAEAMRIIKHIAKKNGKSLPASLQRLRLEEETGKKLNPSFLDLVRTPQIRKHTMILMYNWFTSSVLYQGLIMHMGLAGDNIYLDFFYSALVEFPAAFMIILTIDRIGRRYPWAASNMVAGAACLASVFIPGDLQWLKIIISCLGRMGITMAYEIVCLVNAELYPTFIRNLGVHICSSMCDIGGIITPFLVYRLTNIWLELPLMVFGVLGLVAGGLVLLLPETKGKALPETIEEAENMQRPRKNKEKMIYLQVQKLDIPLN
Experimental: (§1) HEK293 cells were transfected with a plasmid, encoding the transporter of interest and an N-terminal YFP-tag, carried out using jetPRIME ^© (Polyplus Transfection; (VWR International GmbH, Vienna, Austria)) reagent (for a 10 cm dish with 1–2 × 10^6 cells in 10 mL serum containing medium at 60–80% confluency: 500 μ L jetPRIME ^© buffer, 10 μ g DNA and 20 μ L jetPRIME ^© reagent) and selection pressure maintained for two weeks [2, 54, 55]. Subsequently, 500,000 cells were FACS-sorted (fluorescence-activated cell sorting) according to expression level to establish cell lines stably expressing the protein of interest. […] For uptake inhibition assays, cells were cultured at a subconfluent (80–90% density) state in high-glucose Dulbecco’s Modified Eagle Medium (DMEM ), enriched with 10% heat-inactivated Fetal Bovine Serum (FBS) and penicillin/streptomycin (PS; 100 U × 100 mL ^−1 , each). Selection pressure was maintained by the addition of geneticin (50 mg × mL ^−1 ) at 37 ^∘ C and 5% CO 2 in a humidified incubator. At a density of 60,000 cells per well, HEK293 cells expressing the respective transporter were seeded onto poly-D-lysine-coated wells 24 h prior to uptake inhibition experiments in a final volume of 200 μ L per well.
(§2) Prior to the addition of the respective compounds, DMEM was removed from all wells and replaced with 200 μ L of Krebs-HEPES-buffer (KHB; 10 mM HEPES, 120 mM NaCl, 3 mM KCl, 2 mM CaCl 2 , 2 mM MgSO 4 and 20 mM D-glucose, pH adjusted to 7.3) at room temperature. Cells were exposed to a pre-incubation solution containing the compound of interest in the respective concentration (dissolved in Krebs-HEPES-buffer) for 10 min with a total volume of 50 μ L, which was then replaced with a 50 μ L uptake solution containing 0.05 μ M of tritiated 1-methyl-4-phenylpyridinium ([ ^3 H]MPP ^+ ) as substrate, and the compound of interest in respective concentrations, for 10 minutes each. Finally, uptake was terminated by washing with 200 μ L of ice-cold (4 ^∘ C) KHB, after which cells were lysed with 200 μ L of 1% sodium dodecyl sulphate (SDS). After transferring the solution of each well into 6 mL counting vials containing 2 mL of scintillation cocktail, the vials were measured with a beta-scintillation counter for quantification of the uptake of tritiated substrate. […] To obtain specific data, non-specific uptake was assessed in the presence of 100 μ M D22 and subtracted from the total data. The 100% values were defined as uptake in the absence of a tested substance, defining maximal uptake capacity. Inhibitions of the compound of interest were described as a percentage of the maximal uptake capacity.
(§3) Half-maximal inhibitory concentration ( IC50 ) values of each substance were calculated and plotted using GraphPad Prism 8.4.3 (GraphPad Software Inc., San Diego, CA, USA). IC50 was determined by non-linear regression, solving the equation Y=Bottom+(Top−Bottom)/(1+10^X−LogEC50) . […] All data stem from a minimum of three separate experiments (n≥ 3) executed in triplicates and are shown as mean ± SD.

hPMAT [3] = target: T1, hPMAT; experiment: [3H]MPP+ uptake inhibition assay, HEK293 cells stably expressing hPMAT; assay type: cell-based
Experimental: as §1, §2, §3

hOCT3 [4] = target: T3, hOCT3 (Homo sapiens, UniProt O75751); experiment: [3H]MPP+ uptake inhibition assay, HEK293 cells stably expressing hOCT3; assay type: cell-based
T3 construct: expressed in transfected cells
T3 sequence (O75751 1-556): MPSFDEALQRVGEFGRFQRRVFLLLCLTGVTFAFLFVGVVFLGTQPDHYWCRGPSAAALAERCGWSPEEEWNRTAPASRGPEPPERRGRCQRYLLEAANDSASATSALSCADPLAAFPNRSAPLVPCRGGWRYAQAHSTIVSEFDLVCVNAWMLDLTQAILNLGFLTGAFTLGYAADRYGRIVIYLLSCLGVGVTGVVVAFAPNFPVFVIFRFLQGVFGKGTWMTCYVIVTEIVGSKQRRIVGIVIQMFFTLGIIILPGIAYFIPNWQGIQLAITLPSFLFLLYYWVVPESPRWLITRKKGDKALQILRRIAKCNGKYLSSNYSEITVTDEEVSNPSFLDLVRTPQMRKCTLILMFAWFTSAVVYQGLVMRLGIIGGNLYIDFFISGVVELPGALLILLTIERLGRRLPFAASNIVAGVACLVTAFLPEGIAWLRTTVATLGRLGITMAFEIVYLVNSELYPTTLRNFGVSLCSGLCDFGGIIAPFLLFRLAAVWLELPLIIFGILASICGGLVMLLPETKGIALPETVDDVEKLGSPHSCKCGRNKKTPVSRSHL
Experimental: as §1, §2, §3

hOCT2 [5] = target: T2, hOCT2; details: Table S1, supplementary reference list, cited from earlier work; for IC50: read-out: IC50 literature hOCT2; for Ki: read-out: IC50 literature hOCT2 (Ki), Ki values
hOCT1 [6] = target: T4, hOCT1 (Homo sapiens, UniProt O15245); experiment: [3H]MPP+ uptake inhibition assay, HEK293 cells stably expressing hOCT1; assay type: cell-based
T4 construct: expressed in transfected cells
T4 sequence (O15245 1-554): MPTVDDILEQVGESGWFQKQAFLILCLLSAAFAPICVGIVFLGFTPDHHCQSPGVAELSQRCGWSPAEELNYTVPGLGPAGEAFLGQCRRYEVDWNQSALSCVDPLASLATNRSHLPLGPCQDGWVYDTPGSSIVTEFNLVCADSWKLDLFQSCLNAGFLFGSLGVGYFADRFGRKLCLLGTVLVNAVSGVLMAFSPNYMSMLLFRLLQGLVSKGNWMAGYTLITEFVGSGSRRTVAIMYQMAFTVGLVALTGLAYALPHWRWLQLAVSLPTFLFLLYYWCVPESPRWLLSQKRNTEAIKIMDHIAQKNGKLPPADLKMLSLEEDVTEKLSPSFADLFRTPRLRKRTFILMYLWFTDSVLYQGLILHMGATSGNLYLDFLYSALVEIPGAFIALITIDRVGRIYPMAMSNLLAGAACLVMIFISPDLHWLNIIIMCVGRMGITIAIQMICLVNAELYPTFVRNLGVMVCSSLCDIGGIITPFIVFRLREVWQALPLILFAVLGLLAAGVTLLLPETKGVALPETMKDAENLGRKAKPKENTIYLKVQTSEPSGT
Experimental: as §1, §2, §3

hOCT1 [7] = target: T4, hOCT1; details: Table S1, supplementary reference list, cited from earlier work; for IC50: read-out: IC50 literature hOCT1; for Ki: read-out: IC50 literature hOCT1 (Ki), Ki values
hOCT3 [8] = target: T3, hOCT3; details: Table S1, supplementary reference list, cited from earlier work; for Ki: read-out: IC50 literature hOCT3 (Ki), Ki values
mOCT3 = tested on: mOCT3; set-up: method as in earlier work; details: Table S1, hOCT3 column, marked (mOCT3); supplementary reference list; read-out: IC50 literature (mOCT3); cited from earlier work

For `CC(NC(C)(C)C)C(=O)c1cccc(Cl)c1` (stereo not shown) [Bupropion, bupropion], the IC50 (hPMAT [1]; ref 3) is listed as 115 µM, the IC50 (hOCT2 [2]; HEK293 stably expressing hOCT2, 0.05 μM [3H]MPP+, 10 min pre-incubation, 10 min uptake, brackets in Table S1 = 95%-CI, n.s. = non-significant, read-out: IC50 hOCT2 (inhibitory potency, [3H]MPP+ uptake)) is listed as 32.9 µM and the IC50 (hPMAT [3]; HEK293 stably expressing hPMAT, 0.05 μM [3H]MPP+, 10 min pre-incubation, 10 min uptake, brackets in Table S1 = 95%-CI, n.s. = non-significant, read-out: IC50 hPMAT (inhibitory potency, [3H]MPP+ uptake)) is listed as 97 µM. For the same molecule, the IC50 (hOCT3 [4]; HEK293 stably expressing hOCT3, 0.05 μM [3H]MPP+, 10 min pre-incubation, 10 min uptake, brackets in Table S1 = 95%-CI, n.s. = non-significant, read-out: IC50 hOCT3 (inhibitory potency, [3H]MPP+ uptake)) was 186 µM, the IC50 (hOCT2 [5]; ref 1) was 28.6 µM and the IC50 (hOCT2 [5]; ref 2) was 32.2 µM. For the same molecule, the IC50 (hOCT1 [6]; HEK293 stably expressing hOCT1, 0.05 μM [3H]MPP+, 10 min pre-incubation, 10 min uptake, brackets in Table S1 = 95%-CI, n.s. = non-significant, read-out: IC50 hOCT1 (inhibitory potency, [3H]MPP+ uptake)) was 5.36 µM, the IC50 (hOCT1 [7]; ref 1) was 161 µM and the IC50 (hOCT3 [8]; ref 1, read-out: IC50 literature hOCT3) was 738 µM.
For `CN(C)CCCC1(c2ccc(F)cc2)OCc2cc(C#N)ccc21` (stereo not shown) [Citalopram], the IC50 (hPMAT [1]; ref 4) is listed as 117 µM, the IC50 (hOCT2 [5]; ref 1) is listed as 115 µM and the IC50 (hOCT1 [7]; ref 1) is listed as 13.2 µM.
For `CN1C(=O)CN=C(c2ccccc2)c2cc(Cl)ccc21` [Diazepam, diazepam], the IC50 (mOCT3) is listed as 40 µM.
`CNC(C)Cc1ccc2c(c1)OCO2` (stereo not shown) [MDMA, 3,4-methylenedioxymethamphetamine] showed an IC50 (hOCT2 [2]) of 2.71 µM, an IC50 (hPMAT [3]) of 7.77 µM and an IC50 (hOCT3 [4]) of 154 µM. For the same molecule, the “Effect on substrate uptake by hOCT3 (in words)” value (hOCT3 [4]; [3H]MPP+ uptake, HEK293 hOCT3) was “not inhibiting uptake”, the Ki (hOCT2 [5]) was 1.63 ± 0.62 µM and the IC50 (hOCT1 [6]) was 1.14 µM. For the same molecule, the Ki (hOCT1 [7]) was 24.2 ± 9.2 µM and the Ki (hOCT3 [8]) was 73.6 ± 50.3 µM.
In the case of `C[C@H](N)Cc1ccccc1` [d-Amphetamine, d-amphetamine], the IC50 (hOCT2 [2]) is reported as 2.21 µM, the IC50 (hPMAT [3]) is reported as 71.8 µM and the IC50 (hOCT3 [4]) is reported as 337 µM. The Ki (hOCT2 [5]) was 10.5 ± 2.6 µM, the IC50 (hOCT2 [5]) was 20.3 ± 16.9 µM and the IC50 (hOCT1 [6]) was 8.39 µM. The Ki (hOCT1 [7]) was 202 ± 68 µM, the IC50 (hOCT1 [7]) was 96.7 ± 37 µM and the IC50 (hOCT3 [8]; marked (5-HT), read-out: IC50 literature hOCT3 (5-HT)) was 24.1 ± 70 µM. The IC50 (hOCT3 [8]; marked (DA), read-out: IC50 literature hOCT3 (DA)) was 41.5 ± 7.5 µM, the Ki (hOCT3 [8]) was 460 ± 140 µM and the IC50 (hOCT3 [8]; read-out: IC50 literature hOCT3, ref 8) was 363 ± 56.4 µM. The IC50 (hOCT3 [8]; read-out: IC50 literature hOCT3, ref 9) was 42 ± 7 µM.
In the case of `CCCC(C(=O)c1ccccc1)N1CCCC1` (stereo not drawn) [α-PVP], the IC50 (hPMAT [1]; ref 13) is given as 13.4 µM, the IC50 (hOCT2 [5]; ref 13) is given as 5.62 µM and the IC50 (hOCT2 [5]; ref 14) is given as 17.5 ± 2.5 µM. For the same molecule, the IC50 (hOCT1 [7]; ref 13) was 1.31 µM, the IC50 (hOCT3 [8]; ref 13, read-out: IC50 literature hOCT3) was 1630 µM and the IC50 (hOCT3 [8]; ref 14, read-out: IC50 literature hOCT3) was > 1000 µM.
